From ChEMBL document CHEMBL1201862, “PubChem BioAssay data set” (2004)
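96-well plates; 48 h exposure; 5 concentrations. Endpoints by linear interpolation between flanking doses. Not reached: highest tested concentration assigned. At the GI50, growth is halved.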 Activity calls are given as the source filed them. Cut-off read from the data, not from the text of the source: active = GI50 up to about 1.1 µM and inactive = higher.

Columns and labels:
Test in all cases: inhibition of tumour cell growth, NCI panel, 48 h
RPMI-8226 = test system: RPMI-8226
SNB-75 = test system: SNB-75
UACC-62 = test system: UACC-62
HOP-62 = test system: HOP-62
SF-539 = test system: SF-539
NCI-H522 = test system: NCI-H522
A498 = test system: A498
U-251 = test system: U-251
IGROV-1 = test system: IGROV-1
SK-MEL-28 = test system: SK-MEL-28
NCI-H23 = test system: NCI-H23
K562 = test system: K562
LOX IMVI = test system: LOX IMVI
SR = test system: SR
786-0 = test system: 786-0
CCRF-CEM = test system: CCRF-CEM
SF-268 = test system: SF-268
SK-MEL-2 = test system: SK-MEL-2
UACC-257 = test system: UACC-257
MDA-MB-435 = test system: MDA-MB-435

Measured: GI50

OCC1CC2C=CCC(C2)C1 (configuration not stated)
inactive: RPMI-8226 > 100 µM | SNB-75 > 100 µM | UACC-62 > 100 µM | HOP-62 > 100 µM | SF-539 > 100 µM | NCI-H522 > 100 µM | A498 > 100 µM | U-251 > 100 µM | IGROV-1 > 100 µM | SK-MEL-28 > 100 µM | NCI-H23 > 100 µM | K562 > 100 µM | LOX IMVI > 100 µM | SR > 100 µM | 786-0 > 100 µM | CCRF-CEM > 100 µM | SF-268 > 100 µM | SK-MEL-2 > 100 µM | UACC-257 > 100 µM

COc1nc(NC2OCC(O)C(O)C2O)c(NC2OCC(O)C(O)C2O)c(=O)n1C (configuration not stated)
inactive: RPMI-8226 > 100 µM | SNB-75 > 100 µM | UACC-62 > 100 µM | HOP-62 > 100 µM | SF-539 > 100 µM | NCI-H522 > 100 µM | A498 > 100 µM | U-251 > 100 µM | IGROV-1 > 100 µM | SK-MEL-28 > 100 µM | NCI-H23 > 100 µM | K562 > 100 µM | LOX IMVI > 100 µM | SR > 100 µM | 786-0 > 100 µM | CCRF-CEM > 100 µM | SF-268 > 100 µM | SK-MEL-2 > 100 µM | UACC-257 > 100 µM

CC(=O)C1C(=O)C(=O)N(c2ccccc2N2C(=O)C(=O)C(C(C)=O)C2=O)C1=O (configuration not stated)
inactive: RPMI-8226 > 100 µM | SNB-75 > 100 µM | UACC-62 > 100 µM | HOP-62 > 100 µM | SF-539 > 100 µM | NCI-H522 > 100 µM | A498 > 100 µM | U-251 > 100 µM | IGROV-1 > 100 µM | SK-MEL-28 > 100 µM | NCI-H23 > 100 µM | K562 > 100 µM | LOX IMVI > 100 µM | SR > 100 µM | 786-0 > 100 µM | CCRF-CEM > 100 µM | SF-268 > 100 µM | SK-MEL-2 > 100 µM | UACC-257 > 100 µM

Cc1cccc(C)c1NC(=O)C(=O)CC(=O)CO
inactive: RPMI-8226 > 100 µM | SNB-75 73.5 µM | UACC-62 > 100 µM | HOP-62 > 100 µM | SF-539 > 100 µM | NCI-H522 > 100 µM | A498 > 100 µM | U-251 > 100 µM | IGROV-1 > 100 µM | SK-MEL-28 > 100 µM | NCI-H23 > 100 µM | K562 > 100 µM | LOX IMVI > 100 µM | SR > 100 µM | 786-0 > 100 µM | CCRF-CEM > 100 µM | SF-268 > 100 µM | SK-MEL-2 > 100 µM | UACC-257 > 100 µM

CC(C)OP(=O)(OC(C)C)/C(=N/Nc1ccc([N+](=O)[O-])cc1)NCCN/C(=N\Nc1ccc([N+](=O)[O-])cc1)P(=O)(OC(C)C)OC(C)C
inactive: RPMI-8226 3.51 µM | SNB-75 5 µM | UACC-62 2.15 µM | HOP-62 6.01 µM | SF-539 > 100 µM | NCI-H522 3.22 µM | A498 3.7 µM | U-251 3.3 µM | IGROV-1 2.31 µM | SK-MEL-28 31.3 µM | NCI-H23 2.31 µM | K562 3.29 µM | LOX IMVI 8.89 µM | SR 4.03 µM | 786-0 9.86 µM | CCRF-CEM 2.84 µM | SF-268 > 100 µM | SK-MEL-2 4.92 µM | UACC-257 6.61 µM

C/C=C/C/C=C/CCC(=O)C1OC1C(N)=O (configuration not stated)
inactive: SNB-75 14.3 µM | UACC-62 15.9 µM | HOP-62 2.52 µM | SF-539 15.2 µM | NCI-H522 12.4 µM | MDA-MB-435 14.1 µM | U-251 16.8 µM | IGROV-1 16.4 µM | SK-MEL-28 15.4 µM | NCI-H23 14.9 µM | K562 15.9 µM | LOX IMVI 13.2 µM | SR 10.6 µM | 786-0 13.1 µM | CCRF-CEM 11.4 µM | SF-268 12.5 µM | SK-MEL-2 18.6 µM | UACC-257 17.3 µM

O=C1NC(=S)NC(=O)C1C(c1ccc(O)cc1)C1C(=O)NC(=S)NC1=O.c1ccncc1
inactive: RPMI-8226 > 100 µM | UACC-62 > 100 µM | HOP-62 > 100 µM | NCI-H522 > 100 µM | MDA-MB-435 > 100 µM | A498 > 100 µM | U-251 > 100 µM | IGROV-1 > 100 µM | SK-MEL-28 > 100 µM | NCI-H23 > 100 µM | K562 > 100 µM | LOX IMVI > 100 µM | 786-0 > 100 µM | CCRF-CEM > 100 µM | SK-MEL-2 > 100 µM | UACC-257 > 100 µM

Cc1c(Cl)ccc2c1NC(=O)C2(O)CC(=O)c1ccc(Cl)cc1 (configuration not stated)
inactive: RPMI-8226 30.8 µM | SNB-75 76.2 µM | UACC-62 33.5 µM | HOP-62 97.3 µM | SF-539 65.2 µM | NCI-H522 > 61.5 µM | A498 > 43.3 µM | U-251 60.8 µM | IGROV-1 > 100 µM | SK-MEL-28 > 94.4 µM | NCI-H23 54.5 µM | K562 22.8 µM | LOX IMVI 19.7 µM | SR 13.9 µM | 786-0 47.1 µM | CCRF-CEM 14.5 µM | SF-268 > 70.1 µM | SK-MEL-2 > 46 µM | UACC-257 23.7 µM

CCNC(=O)COc1ccc(Br)cc1Br
inactive: RPMI-8226 > 100 µM | SNB-75 > 100 µM | UACC-62 33.3 µM | HOP-62 > 100 µM | SF-539 > 100 µM | NCI-H522 > 100 µM | A498 > 100 µM | U-251 > 100 µM | IGROV-1 > 100 µM | SK-MEL-28 > 100 µM | NCI-H23 > 100 µM | K562 > 100 µM | LOX IMVI > 100 µM | SR > 100 µM | 786-0 > 100 µM | CCRF-CEM > 100 µM | SF-268 > 100 µM | SK-MEL-2 42.9 µM | UACC-257 > 100 µM

C/C(CC(O)(/C=N/O)c1ccccc1)=N/O (configuration not stated)
inactive: RPMI-8226 > 100 µM | HOP-62 > 100 µM | SF-539 > 100 µM | NCI-H522 > 100 µM | MDA-MB-435 > 100 µM | U-251 > 100 µM | IGROV-1 > 100 µM | SK-MEL-28 > 100 µM | NCI-H23 > 100 µM | K562 > 100 µM | LOX IMVI > 100 µM | SR > 100 µM | 786-0 > 100 µM | CCRF-CEM > 100 µM | SF-268 > 100 µM | SK-MEL-2 > 100 µM | UACC-257 > 100 µM

CC1(C)COC(c2cccc(C(O)c3ccc(Cl)cc3)c2)=N1 (configuration not stated)
inactive: RPMI-8226 27.2 µM | SNB-75 2.94 µM | UACC-62 19 µM | HOP-62 30.1 µM | SF-539 19.4 µM | NCI-H522 31.8 µM | MDA-MB-435 24.9 µM | U-251 22.6 µM | IGROV-1 30.5 µM | SK-MEL-28 29.2 µM | NCI-H23 23.9 µM | K562 23.4 µM | LOX IMVI 15 µM | SR 31.3 µM | 786-0 23.9 µM | CCRF-CEM 19 µM | SF-268 31.1 µM | SK-MEL-2 24.2 µM
